This note sets out measurements from ChEMBL document CHEMBL4699516, “S-Bridged Thioether and Structure-Diversified Angucyclinone Derivatives from the South China Sea-Derived Micromonospora echinospora SCSIO 04089” (J Nat Prod, 2020).

Values after ≈ are worked out from the molar mass of the structure shown.

A word on the IC50: it is the concentration at which inhibition is half-maximal. One may read the MIC as the smallest concentration in the dilution series that meets the test's criterion for growth inhibition.

One assay relates to SF-268. As to the kind of experiment: Cytotoxicity against human SF-268 cells assessed as reduction in cell viability after 72 hrs by SRB assay. The format is functional, cell-based. Conditions: SF-268, 72 h.
Another assay relates to MCF7. As to the kind of experiment: Cytotoxicity against human MCF7 cells assessed as reduction in cell viability after 72 hrs by SRB assay. Conditions: MCF7, 72 h. The format is functional, cell-based.
Another assay concerns HepG2. Kind of assay: Cytotoxicity against human HepG2 cells assessed as reduction in cell viability after 72 hrs by SRB assay. The format is functional, cell-based. Conditions: HepG2, 72 h. For orientation: Sulforhodamine B stains cellular protein and so reports cell mass.
Assay [1] relates to Staphylococcus aureus. As to the kind of experiment: Antibacterial activity against Staphylococcus aureus ATCC 29213 assessed as reduction in bacterial growth after 16 hrs by broth microdilution method. The format is functional.
For the next assay, the system named is Bacillus thuringiensis. Kind of assay: Antibacterial activity against Bacillus thuringiensis SCSIO BT01 assessed as reduction in bacterial growth after 16 hrs by broth microdilution method. The format is functional. On the technique in general: Broth dilution looks for growth in wells or tubes with falling amounts of substance.
The next assay relates to Micrococcus luteus. As to the kind of experiment: Antibacterial activity against Micrococcus luteus SCSIO ML01 assessed as reduction in bacterial growth after 16 hrs by broth microdilution method. It counts as functional.
In a further assay the test system is Bacillus subtilis. Kind of assay: Antibacterial activity against […] 1064 assessed as reduction in bacterial growth after 16 hrs by broth microdilution method. It counts as functional.
Assay [2] has as its system Staphylococcus aureus. Kind of assay: Antibacterial activity against methicillin-resistant Staphylococcus aureus shhs-A1 assessed as reduction in bacterial growth after 16 hrs by broth microdilution method. The format is functional.

For `CCc1cc(O)c(C2=C(O)C(=O)c3c(O)cccc3C2=O)c(C(=O)OC)c1`, the IC50 in the assay with SF-268, in the assay with MCF7 and in the assay on HepG2 was above 100 µM throughout. For the same compound, the MIC with Staphylococcus aureus [1], in the assay with Bacillus thuringiensis, in the assay on Micrococcus luteus, in the assay on Bacillus subtilis and in the assay with Staphylococcus aureus [2] was above 64 µg/mL throughout.
With `CC[C@]12CC(=O)[C@@]3(O)[C@](O)(CC(O)=C4C(=O)c5c(O)cccc5C(=O)[C@@]43S1)C2`, the IC50 in the assay with SF-268, in the assay with MCF7 and in the assay with HepG2 was above 100 µM throughout. For the same compound, the MIC with Staphylococcus aureus [1], with Bacillus thuringiensis, with Micrococcus luteus, with Bacillus subtilis and with Staphylococcus aureus [2] was above 64 µg/mL throughout.
Take `CCc1cc(O)c2c(c1C(C)=O)C(=O)c1cccc(O)c1C2=O`: the IC50 in the assay on SF-268 stood at 7.6 µM; in the assay on MCF7, 10.4 µM; in the assay on HepG2, 8.1 µM. Moreover, the MIC in the assay on Staphylococcus aureus [1], in the assay on Bacillus thuringiensis, in the assay on Micrococcus luteus, with Bacillus subtilis and with Staphylococcus aureus [2] was above 64 µg/mL in each case.
As for `CCc1cc(O)c2c3c(ncc2c1)C(=O)c1c(O)cccc1C3=O`, the values for the IC50 in the assay on SF-268, in the assay with MCF7 and in the assay with HepG2 were 5.4 µM, 6.8 µM and 1.4 µM, respectively. The MIC in the assay on Staphylococcus aureus [1] is 2 µg/mL (≈ 6.26 µM); in the assay with Bacillus thuringiensis, 4 µg/mL (≈ 12.5 µM); with Micrococcus luteus, 4 µg/mL (≈ 12.5 µM); in the assay with Bacillus subtilis it was 4 µg/mL (≈ 12.5 µM); with Staphylococcus aureus [2], 2 µg/mL (≈ 6.26 µM).
With `CCc1cc(O)c2c(c1)C(SC[C@H](NC(C)=O)C(=O)O)=C1C(=O)c3c(O)cccc3C(O)=C12`, the IC50 with SF-268, in the assay on MCF7 and in the assay with HepG2 was above 100 µM each time. The MIC in the assay with Staphylococcus aureus [1], in the assay on Bacillus thuringiensis, with Micrococcus luteus, with Bacillus subtilis and in the assay with Staphylococcus aureus [2] was above 64 µg/mL each time.
With `CCc1cc(O)c2c3c([nH]c(=O)c2c1)C(=O)c1c(O)cccc1C3=O`, the IC50 in the assay on SF-268 was determined as 18 µM; with MCF7, 52 µM; in the assay with HepG2, 4 µM. The MIC with Staphylococcus aureus [1] is 64 µg/mL (≈ 191 µM); with Bacillus thuringiensis, above 64 µg/mL; with Micrococcus luteus it was above 64 µg/mL; in the assay on Bacillus subtilis, above 64 µg/mL; in the assay with Staphylococcus aureus [2] it was 64 µg/mL (≈ 191 µM).
Turning to `CCc1cc(O)c2c3c(c(O)cc2c1)C(=O)c1c(O)cccc1C3=O`, the results for the IC50 in the assay with SF-268, in the assay on MCF7 and in the assay on HepG2 were 16.9 µM, 14.9 µM and 25.3 µM, respectively. Further, the minimal inhibitory concentration (MIC) in the assay with Staphylococcus aureus [1] is 4 µg/mL (≈ 12 µM); in the assay on Bacillus thuringiensis, above 64 µg/mL; in the assay on Micrococcus luteus, 8 µg/mL (≈ 23.9 µM); in the assay on Bacillus subtilis, above 64 µg/mL; in the assay on Staphylococcus aureus [2], above 64 µg/mL.
Consider `CCc1cc(C(=O)O)c2c3c(oc2c1)C(=O)c1c(O)cccc1C3=O`, for which the IC50 with SF-268, with MCF7 and with HepG2 was above 100 µM each time. In addition, the MIC in the assay with Staphylococcus aureus [1], in the assay with Bacillus thuringiensis, with Micrococcus luteus, with Bacillus subtilis and with Staphylococcus aureus [2] was above 64 µg/mL in each case.
As to `CC[C@]1(O)CC(=O)c2c(cc(O)c3c2C(=O)c2cccc(O)c2C3=O)C1`, the values for the IC50 in the assay with SF-268, in the assay on MCF7 and with HepG2 were 9 µM, 12.5 µM and 10.3 µM, respectively. Also, the MIC in the assay on Staphylococcus aureus [1], with Bacillus thuringiensis, in the assay with Micrococcus luteus, with Bacillus subtilis and in the assay on Staphylococcus aureus [2] was above 64 µg/mL each time.
In the case of `CCc1cc(O)c2c(c1)C(N)=C1C(=O)c3c(O)cccc3C(=O)C12CC(C)=O` (racemic), the IC50 in the assay on SF-268, in the assay with MCF7 and with HepG2 was above 100 µM in each case. Moreover, the MIC in the assay with Staphylococcus aureus [1], in the assay on Bacillus thuringiensis, in the assay with Micrococcus luteus, in the assay on Bacillus subtilis and with Staphylococcus aureus [2] was above 64 µg/mL in each case.
As to `Cc1cn([C@H]2C[C@H](O)[C@@H](COP(=O)(O)O)O2)c(=O)[nH]c1=O` [THYMIDINE MONOPHOSPHATE], the MIC with Staphylococcus aureus [1] turned out to be 2 µg/mL; in the assay with Bacillus thuringiensis, 0.5 µg/mL; in the assay with Micrococcus luteus, 0.5 µg/mL; in the assay on Bacillus subtilis it was 0.5 µg/mL; in the assay with Staphylococcus aureus [2], 2 µg/mL.
